Publication doi:10.1101/2024.04.24.590935, “Measuring PETase enzyme kinetics by single-molecule microscopy” (bioRxiv, 2024)

Experiments:
[1] = biological target: T1, PETase (wild-type PETase, IsPETase) (Pseudideonella sakaiensis, UniProt A0A0K8P6T7, W159H/S238F); assay: single-molecule TIRF of Qdot655-labelled PETase on PET film, competition by pNPA; type: binding; details: 4 mM pNPA; competitive with PET; also model soluble substrate; 50 mM sodium phosphate, 100 mM NaCl, pH 7.4, 22 °C
T1 construct: gene ISF6_4831
T1 sequence (A0A0K8P6T7 28-290 W159H/S238F): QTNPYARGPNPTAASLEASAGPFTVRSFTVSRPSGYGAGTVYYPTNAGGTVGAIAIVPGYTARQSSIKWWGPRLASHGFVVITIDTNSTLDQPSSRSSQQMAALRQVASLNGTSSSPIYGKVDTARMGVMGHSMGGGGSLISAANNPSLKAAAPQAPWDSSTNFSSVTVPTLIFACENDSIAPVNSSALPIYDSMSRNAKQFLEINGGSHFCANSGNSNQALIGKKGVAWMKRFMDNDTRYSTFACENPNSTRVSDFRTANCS

[2] = biological target: T2, PETase (wild-type PETase, IsPETase) (Pseudideonella sakaiensis, UniProt A0A0K8P6T7); assay: as above; type: binding; details: 4 mM pNPA; competitive with PET; also model soluble substrate; 50 mM sodium phosphate, 100 mM NaCl, pH 7.4, 22 °C
T2 construct: gene ISF6_4831
T2 sequence (A0A0K8P6T7 28-290): as the sequence (A0A0K8P6T7 28-290 W159H/S238F) above, with H132W, F211S counted along it

CC(=O)Oc1ccc([N+](=O)[O-])cc1 [4-Nitrophenyl acetate]
single-molecule TIRF of Qdot655-labelled PETase on PET film, competition by pNPA [1]: pNPA strongly diminished the landing rate of the wild-type and hyperactive mutant
single-molecule TIRF of Qdot655-labelled PETase on PET film, competition by pNPA [2]: pNPA reduced the binding duration of wild-type PETase and the hyperactive variant
